In patent US20250099517A1, “Use of Lactobacillus reuteri Y7 strain for prevention or treatment of ocular diseases” (Taipei Medical University, priority 2023, published 2025):

Columns and labels:
[1] = tested on: photosensitivity of a retina; assay: scotopic electroretinography (ERG), blue light-induced macular disease model; type: in vivo, C57BL/6 mice
Description: The C57BL/6 mice, which weighed between 23 and 25 g, were divided into seven groups randomly. In each group, the six mice induced by blue light successfully were incorporated in experiments. The samples dissolved in deuterium-depleted water (DDW) were fed to mice through oral tubes once a day. The groups were named and introduced as follows: • (1) Solvent not classified group (NC): The mice were fed with 0.2 ml deuterium-depleted water (DDW) through tubes; • (2) Negative control group (Blue light (BL)): The mice were fed with 0.2 ml deuterium-depleted water (DDW) through tubes and exposed to blue light; • (3) Low-dosage Y7 probiotics group […]): The mice were fed with low-dosage Y7 probiotics (probiotic counts of 1.0×10^8 CFU/ml dissolved in 0.2 ml DDW per day) and exposed to blue light; • (4) High-dosage Y7 probiotics group […]): The mice were fed with high-dosage Y7 probiotics (probiotic counts of 1.0×10^9 CFU/ml dissolved in 0.2 ml DDW per day) and exposed to blue light; • (5) Positive control group (lutein (LU)): The mice were fed with lutein and exposed to blue light. The recommended human dosage of lutein is 30 mg. The mouse cage (48×25×20 cm) placed inside a stainless ventilated box was equipped with blue light boards as blue light sources around and above. In the experiment of animals exposed to blue light, six-week-old mice staying in the mouse cage were fed with drinking water as well as fodders and exposed to 400 Lux blue light illumination under the light-dark cycle of 12-hour light and 12-hour dark. The experiment was aimed at causing mice' late dry macular disease induced by chronic light injuries for simulating a human being's macular disease after long-term exposure to short-wavelength blue light from 3C products in daily life. The mydriatic agent, Atropine (0.125%), was distilled into mice' eyes for mydriasis in advance. Then, mice were anesthetized with Zoletil (40 mg/kg) and Xylazine (10 mg/kg) through intraperitoneal (IP); 2% Methocel gel as a lubricant was distilled into eyes of a deeply anesthetized mouse having placed on a clean bench. The ERG analysis was enabled with the electrodes installed completely. A mouse was stimulated with single excitation light for collection of ERG from which a negative a-wave and a positive b-wave were generated. For the ERG analysis, the excitation time was defined as the period from the initial time of excitation light emitted to the time of the a-wave (b-wave) peak detected; the amplitude of a-wave was defined as the amplitude difference between the background ERG value at the initial time of excitation light emitted and the ERG value of the a-wave peak; the amplitude of b-wave was defined as the amplitude difference between the ERG value of the a-wave peak and the ERG value of the b-wave peak. Any change observed in the excitation time or an amplitude referred to functions of retinal cells normal or abnormal. In electrophysiology, the a-wave denotes the healthy condition of photoreceptors at outside of a retina; the b-wave denotes the healthy condition of medial nerve cells of a retina such as bipolar cells and horizontal cells; the c-wave denotes the healthy condition of retinal pigment epithelium (RPE) on a retina. In the experiment, the scotopic electroretinography (ERG) was used in inspecting influence of exposure to blue light on photosensitivity of a mouse's retina. When light was received by a mouse's eyes, opsins and 11-cis-retinal on photoreceptor cells were combined with each other for a visual cycle such that a membrane potential difference was produced for transmission of ERG by the retinal neuron layer sequentially, that is, the electroretinographic physiological function test was conducted through recording peak potential differences generated by different nerve cells. […]

[2] = tested on: blue light-induced retinal atrophy; assay: SD-OCT quantitative analysis of retina layers, blue light-induced macular disease model; type: in vivo, C57BL/6 mice; conditions: for ONL (outer nuclear layer) thickness compared with the BL group / RPE layer thickness compared with the BL group: Day 35, p<0.05
Description: The C57BL/6 mice, which weighed between 23 and 25 g, were divided into seven groups randomly. In each group, the six mice induced by blue light successfully were incorporated in experiments. The samples dissolved in deuterium-depleted water (DDW) were fed to mice through oral tubes once a day. The groups were named and introduced as follows: • (1) Solvent not classified group (NC): The mice were fed with 0.2 ml deuterium-depleted water (DDW) through tubes; • (2) Negative control group (Blue light (BL)): The mice were fed with 0.2 ml deuterium-depleted water (DDW) through tubes and exposed to blue light; • (3) Low-dosage Y7 probiotics group […]): The mice were fed with low-dosage Y7 probiotics (probiotic counts of 1.0×10^8 CFU/ml dissolved in 0.2 ml DDW per day) and exposed to blue light; • (4) High-dosage Y7 probiotics group […]): The mice were fed with high-dosage Y7 probiotics (probiotic counts of 1.0×10^9 CFU/ml dissolved in 0.2 ml DDW per day) and exposed to blue light; • (5) Positive control group (lutein (LU)): The mice were fed with lutein and exposed to blue light. The recommended human dosage of lutein is 30 mg. The mouse cage (48×25×20 cm) placed inside a stainless ventilated box was equipped with blue light boards as blue light sources around and above. In the experiment of animals exposed to blue light, six-week-old mice staying in the mouse cage were fed with drinking water as well as fodders and exposed to 400 Lux blue light illumination under the light-dark cycle of 12-hour light and 12-hour dark. The experiment was aimed at causing mice' late dry macular disease induced by chronic light injuries for simulating a human being's macular disease after long-term exposure to short-wavelength blue light from 3C products in daily life. The OCT image system (Phoenix Research Laboratories, San Ramon, CA) used in the experiment is constructed based on the principle of spectral-domain optical coherence tomography. In the system, the computed tomography is divided into five layers, that is, Layer 1: the distance from the Ganglion cell layer (GY7L) to the outer plexiform layer (OPL); Layer 2: outer nuclear layer (ONL); Layer 3: the distance between the inner segment (IS) and the outer segment (OS); Layer 4: the distance from IS/OS to RPE; Layer 5: the total retinal thickness from the nerve fiber layer (NFL) to the lower edge of the RPE layer. The five layers were taken for the quantitative analysis by InSight XL (Phoenix Research Laboratories, San Ramon, CA). SD-OCT was used in checking lesions after exposure to blue light such as retinal atrophy and edema on a retina structure. According to the quantitative SD-OCT analysis, changes in all layers of a retina during the experiment were clearly inspected and no lesion like atrophy and edema was detected in any group before the experiment, as show in FIG. 5. Atrophy at the outer nuclear layer (ONL) of mice in the BL group was observed on Day 35, as shown by the arrow in FIG. 3a.

[3] = LU lutein group, ERG Day 35, p<0.05

| Molecule | amplitude of a-waves compared with the BL group ([1]; mouse, in vivo) | amplitude of a-waves compared with the LU group ([1]; mouse, in vivo) | amplitude of a-waves compared with the NC group ([1]; mouse, in vivo) | amplitude of b-waves, BL group versus treated group ([1]; mouse, in vivo) | amplitude of c-waves compared with the BL group ([1]; mouse, in vivo) | ONL (outer nuclear layer) thickness compared with the BL group ([2]; Y7H high-dosage group) | RPE layer thickness compared with the BL group ([2]; Y7H high-dosage group) | ONL (outer nuclear layer) thickness compared with the BL group ([2]; Y7L low-dosage group) | RPE layer thickness compared with the BL group ([2]; Y7L low-dosage group) | thickness of a retina after long-term exposure to blue light ([2]; high-dosage Y7 probiotics) | thickness of a retina after long-term exposure to blue light ([2]; low-dosage Y7 probiotics) | amplitude of b-waves, BL group versus treated group [1, 3] | amplitude of c-waves compared with the BL group [1, 3] | RPE layer thickness compared with the BL group ([2]; LU lutein group) | thickness of a retina after long-term exposure to blue light ([2]; lutein) |
| --- | --- | --- | --- | --- | --- | --- | --- | --- | --- | --- | --- | --- | --- | --- | --- |
| Lactobacillus reuteri Y7 [Y7 probiotics] | increased significantly | decreased significantly | decreased significantly | BL group decreased significantly compared with the LU or Y7H group | significant difference | significant difference | significantly thicker | significant difference | significantly thicker | effectively maintained | effectively maintained |  |  |  |  |
| CC1=C[C@H](O)CC(C)(C)[C@H]1/C=C/C(C)=C/C=C/C(C)=C/C=C/C=C(C)/C=C/C=C(C)/C=C/C1=C(C)C[C@@H](O)CC1(C)C [lutein, reference compound] |  |  |  |  |  |  |  |  |  |  |  | BL group decreased significantly compared with the LU or Y7H group | significant difference | significantly thicker | effectively maintained |
